One experiment has as its target DNMT1 (Homo sapiens, UniProt P26358). In words: DNMT1 biochemical activity, breaklight assay and/or SPA assay.
For experiment [1], the system named is erythroid progenitor cells (EPCs). In words: Fetal hemoglobin (HbF) ELISA in day 7 erythroid progenitor cells. In kind it is cell-based, human. As to conditions: Homo sapiens, Erythroid progenitor cell, HbF ELISA, day 7 EPCs, 5 days; read-out: EPC ELISA (pEC50 category) (converted). Put shortly: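 HbF induction was read by anti-HbF sandwich ELISA (HRP/TMB, OD450) on lysates and normalized to vehicle-treated cells. Cells were day 7 erythroid progenitors derived from human bone marrow CD34+ cells, seeded at 1,000/well with 3 U/mL rhEPO. Compound was given for 5 days at 37 °C at final concentrations […].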
For orientation: An ELISA detects its analyte on a solid surface through an enzyme-linked reagent.

Setting [2] is: binned activity in either the breaklight or the SPA assay, read-out: DNMT1 BioChemical (pIC50 category) (converted).
Setting [3] is: binned activity in either the breaklight or the SPA assay.

The values below come from US10975056B2 (GlaxoSmithKline Intellectual Property Development Limited, priority 2016, dated 2021).

The structures appear in SMILES notation. Read-outs that look alike come from different tables or passages of the source.

Sequence of DNMT1 (P26358 whole entry, looked up): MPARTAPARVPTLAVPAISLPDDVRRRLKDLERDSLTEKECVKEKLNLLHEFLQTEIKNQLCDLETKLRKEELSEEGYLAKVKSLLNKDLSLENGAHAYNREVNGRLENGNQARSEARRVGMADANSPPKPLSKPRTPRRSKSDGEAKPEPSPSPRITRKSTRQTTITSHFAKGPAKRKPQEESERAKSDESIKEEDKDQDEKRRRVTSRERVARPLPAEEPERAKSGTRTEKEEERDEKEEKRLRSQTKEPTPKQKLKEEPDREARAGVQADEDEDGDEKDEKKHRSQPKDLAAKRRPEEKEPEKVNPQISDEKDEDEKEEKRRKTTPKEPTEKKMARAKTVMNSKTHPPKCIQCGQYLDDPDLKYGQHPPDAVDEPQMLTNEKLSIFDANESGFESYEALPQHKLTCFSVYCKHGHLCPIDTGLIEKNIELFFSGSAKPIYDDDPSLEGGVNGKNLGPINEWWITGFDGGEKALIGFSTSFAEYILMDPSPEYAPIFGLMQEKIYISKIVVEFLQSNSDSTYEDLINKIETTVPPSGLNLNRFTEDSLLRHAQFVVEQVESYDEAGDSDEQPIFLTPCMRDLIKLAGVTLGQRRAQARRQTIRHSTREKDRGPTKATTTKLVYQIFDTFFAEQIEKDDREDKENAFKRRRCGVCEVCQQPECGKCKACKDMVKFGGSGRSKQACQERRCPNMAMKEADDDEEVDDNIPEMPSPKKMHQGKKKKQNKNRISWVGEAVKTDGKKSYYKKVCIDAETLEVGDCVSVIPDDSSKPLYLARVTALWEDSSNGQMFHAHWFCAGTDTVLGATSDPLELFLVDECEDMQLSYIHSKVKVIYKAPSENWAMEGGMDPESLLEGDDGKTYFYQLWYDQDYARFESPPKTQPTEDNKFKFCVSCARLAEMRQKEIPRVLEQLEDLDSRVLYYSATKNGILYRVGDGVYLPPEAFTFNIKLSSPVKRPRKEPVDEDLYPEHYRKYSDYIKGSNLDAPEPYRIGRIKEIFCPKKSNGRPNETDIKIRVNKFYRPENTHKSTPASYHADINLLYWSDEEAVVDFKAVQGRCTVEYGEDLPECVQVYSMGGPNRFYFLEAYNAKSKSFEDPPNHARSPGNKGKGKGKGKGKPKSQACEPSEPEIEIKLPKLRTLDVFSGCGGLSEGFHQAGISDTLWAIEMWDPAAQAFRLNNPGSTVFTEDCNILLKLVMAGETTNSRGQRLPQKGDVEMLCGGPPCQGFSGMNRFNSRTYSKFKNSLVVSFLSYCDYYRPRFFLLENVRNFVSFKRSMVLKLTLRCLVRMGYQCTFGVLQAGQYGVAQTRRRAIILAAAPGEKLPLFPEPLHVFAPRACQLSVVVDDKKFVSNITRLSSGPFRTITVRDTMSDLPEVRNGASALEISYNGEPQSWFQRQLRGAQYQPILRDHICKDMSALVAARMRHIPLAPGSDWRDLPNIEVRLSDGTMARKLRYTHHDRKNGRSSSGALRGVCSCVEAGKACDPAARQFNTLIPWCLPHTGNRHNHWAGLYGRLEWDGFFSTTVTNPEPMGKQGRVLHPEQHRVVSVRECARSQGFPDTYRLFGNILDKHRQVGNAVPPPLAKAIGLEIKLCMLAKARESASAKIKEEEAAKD

On to `CCc1c(C#N)c(SC(C(N)=O)c2ccccc2)nc(N2CCN(Cc3ccncc3)CC2)c1C#N` (stereo not drawn) [Example 173, 2-((3,5-Dicyano-4-ethyl-6-(4-(pyridin-4-ylmethyl)piperazin-1-yl)pyridin-2-yl)thio)-2-phenylacetamide], for which the IC50 at DNMT1 (setting [2]) was 316 to 1000 nM. In addition, the EC50 in experiment [1] is 316 to 1000 nM.

As for `CCc1c(C#N)c(S[C@@H](C(N)=O)c2ccccc2)nc(N2CC[C@H](N)[C@H](F)C2)c1C#N` [Example 509, (R)-2-((6-((3R,4S)-4-amino-3-fluoropiperidin-1-yl)-3,5-dicyano-4-ethylpyridin-2-yl)thio)-2-phenylacetamide • (0.67)2,2,2-trifluoroacetate • (0.33)methanesulfonate], the “DNMT1 BioChemical (pIC50 category)” value on DNMT1 (setting [3]) is recorded as “D (Category D: ≥6.5)”. The EC50 in experiment [1] is below 316 nM.

Turning to `CCc1c(C#N)c(SC(C(N)=O)c2ccccc2)nc(N2CCCC(CNC)C2)c1C#N` (stereo not drawn) [Example 566, 2-((3,5-dicyano-4-ethyl-6-(3-((methylamino)methyl)piperidin-1-yl)pyridin-2-yl)thio)-2-phenylacetamide], the “DNMT1 BioChemical (pIC50 category)” value on DNMT1 (setting [3]) is reported as “D (Category D: ≥6.5)”. In experiment [1], the EC50 was below 316 nM.

On to `CCc1c(C#N)c(SC(C(N)=O)c2ccccc2)nc(N(C)CCN2CCNCC2)c1C#N` (stereo not drawn) [Example 167, 2-((3,5-Dicyano-4-ethyl-6-(methyl(2-(piperazin-1-yl)ethyl)amino)pyridin-2-yl)thio)-2-phenylacetamide], for which the “DNMT1 BioChemical (pIC50 category)” value at DNMT1 (setting [3]) is “D (Category D: ≥6.5)”. For the same molecule, the EC50 in experiment [1] is below 316 nM.

In the case of `CCc1c(C#N)c(SC(C(N)=O)c2ccccc2)nc(N(C)CC(=O)NC(CO)CO)c1C#N` (stereo not drawn) [Example 658, 2-((6-((2-amino-2-oxo-1-phenylethyl)thio)-3,5-dicyano-4-ethylpyridin-2-yl)(methyl)amino)-N-(1,3-dihydroxypropan-2-yl)acetamide], the “DNMT1 BioChemical (pIC50 category)” value at DNMT1 (setting [3]) is on record as “D (Category D: ≥6.5)”. Further, the EC50 in experiment [1] was 1000 to 31600 nM.

On to `CCc1c(C#N)c(SC(C(N)=O)c2ccc(C(F)(F)F)cc2)nc(N2CCC(NCC(C)(C)C)CC2)c1C#N` (stereo not drawn) [Example 532, 2-((3,5-dicyano-4-ethyl-6-(4-(neopentylamino)piperidin-1-yl)pyridin-2-yl)thio)-2-(4-(trifluoromethyl)phenyl)acetamide], for which, on DNMT1 (setting [3]), the “DNMT1 BioChemical (pIC50 category)” value is “D (Category D: ≥6.5)”. Moreover, the EC50 in experiment [1] was below 316 nM.

`CCc1c(C#N)c(SC(C(N)=O)c2ccccc2)nc(N2CC[C@H](NCC(C)(C)O)C2)c1C#N` (stereo partly drawn) [Example 541, 2-((3,5-dicyano-4-ethyl-6-((S)-3-((2-hydroxy-2-methylpropyl)amino)pyrrolidin-1-yl)pyridin-2-yl)thio)-2-phenylacetamide]: the “DNMT1 BioChemical (pIC50 category)” value at DNMT1 (setting [3]) is “D (Category D: ≥6.5)”. In addition, the EC50 in experiment [1] is below 316 nM.

In the case of `CNc1c(C#N)c(SCc2ccc(CNC(C)=O)cc2)nc(N2CCCN(C)CC2)c1C#N` [Example 91, N-(4-(((3,5-Dicyano-6-(4-methyl-1,4-diazepan-1-yl)-4-(methylamino)pyridin-2-yl)thio)methyl)benzyl)acetamide], the IC50 on DNMT1 (setting [2]) was 316 to 1000 nM. Moreover, the EC50 in experiment [1] is 1000 to 31600 nM.

For the molecule `CCc1c(C#N)c(SCc2ccc(N(C)S(C)(=O)=O)cc2)nc(N(C)CCNC)c1C#N` [Example 471, N-(4-(((3,5-dicyano-4-ethyl-6-(methyl(2-(methylamino)ethyl)amino)pyridin-2-yl)thio)methyl)phenyl)-N-methylmethanesulfonamide], the “DNMT1 BioChemical (pIC50 category)” value at DNMT1 (setting [3]) was “D (Category D: ≥6.5)”. Besides, the EC50 in experiment [1] was below 316 nM.

On DNMT1 (DNMT1 BioChemical (pIC50 category), binned activity in either the breaklight or the SPA assay), `CCc1c(C#N)c(SC(C(N)=O)c2ccccc2)nc(N(C)C2CC3CCC(C2)N3)c1C#N` (stereo not drawn) [Example 62, 2-((6-(8-azabicyclo[3.2.1]octan-3-yl(methyl)amino)-3,5-dicyano-4-ethylpyridin-2-yl)thio)-2-phenylacetamide] came in with an IC50 of 316 to 1000 nM. Further, in experiment [1], the EC50 is 316 to 1000 nM.

`CCc1c(C#N)c(SC(C(N)=O)c2ccccc2)nc(N2CCN(C3CCNCC3)CC2)c1C#N` (stereo not drawn) [Example 13, 2-({3,5-dicyano-4-ethyl-6-[4-(piperidin-4-yl)piperazin-1-yl]pyridin-2-yl}sulfanyl)-2-phenylacetamide]: the IC50 on DNMT1 (setting [2]) was 316 to 1000 nM. Further, the EC50 in experiment [1] is 316 to 1000 nM.

Turning to `CCc1c(C#N)c(SC(C(N)=O)c2ccccc2)nc(N(C)CC(=O)N2CCO[C@@H](CO)C2)c1C#N` (stereo partly drawn) [Example 662, 2-((3,5-dicyano-4-ethyl-6-((2-((R)-2-(hydroxymethyl)morpholino)-2-oxoethyl)(methyl)amino)pyridin-2-yl)thio)-2-phenylacetamide], the “DNMT1 BioChemical (pIC50 category)” value on DNMT1 (setting [3]) is given as “D (Category D: ≥6.5)”. Besides, the EC50 in experiment [1] was below 316 nM.

As for `CCc1c(C#N)c(SC(C(N)=O)c2ccccc2)nc(N2CCC(NC3CCC3)CC2)c1C#N` (stereo not drawn) [Example 448, 2-((3,5-dicyano-6-(4-(cyclobutylamino)piperidin-1-yl)-4-ethylpyridin-2-yl)thio)-2-phenylacetamide], the “DNMT1 BioChemical (pIC50 category)” value at DNMT1 (setting [3]) was “D (Category D: ≥6.5)”. In experiment [1], the EC50 is below 316 nM.

For `CCc1c(C#N)c(SC(C(N)=O)c2ccc(F)cc2)nc(N2CCC(NCC(C)(C)O)CC2)c1C#N` (stereo not drawn) [Example 513, 2-((3,5-dicyano-4-ethyl-6-(4-((2-hydroxy-2-methylpropyl)amino)piperidin-1-yl)pyridin-2-yl)thio)-2-(4-fluorophenyl)acetamide], on DNMT1 (setting [2]), the IC50 is below 316 nM. The EC50 in experiment [1] is below 316 nM.

Take `COc1c(C#N)c(SC(C(N)=O)c2ccccc2)nc(N2CCCN(CCO)CC2)c1C#N` (stereo not drawn) [Example 142, 2-((3,5-Dicyano-6-(4-(2-hydroxyethyl)-1,4-diazepan-1-yl)-4-methoxypyridin-2-yl)thio)-2-phenylacetamide]: on DNMT1 (setting [3]), the “DNMT1 BioChemical (pIC50 category)” value is recorded as “D (Category D: ≥6.5)”. The EC50 in experiment [1] is 316 to 1000 nM.

`CCc1c(C#N)c(SC(C(N)=O)c2cccc(P(C)(C)=O)c2)nc(N(C)C)c1C#N` (stereo not drawn) [Example 419, 2-((3,5-Dicyano-6-(dimethylamino)-4-ethylpyridin-2-yl)thio)-2-(3-(dimethylphosphoryl)phenyl)acetamide]: the IC50 at DNMT1 (setting [2]) is 316 to 1000 nM. Also, in experiment [1], the EC50 was 1000 to 31600 nM.

`CCc1c(C#N)c(SC(C(N)=O)c2ccccc2)nc(N2CCOC(CN(CC)CC)C2)c1C#N` (stereo not drawn) [Example 559, 2-((3,5-dicyano-6-(2-((diethylamino)methyl)morpholino)-4-ethylpyridin-2-yl)thio)-2-phenylacetamide]: the “DNMT1 BioChemical (pIC50 category)” value at DNMT1 (setting [3]) was “D (Category D: ≥6.5)”. Besides, the EC50 in experiment [1] is below 316 nM.

With `CCc1c(C#N)c(SC(C(N)=O)c2ccccc2)nc(N2CC(CC(N)=O)C2)c1C#N` (stereo not drawn) [Example 330, 2-((6-(3-(2-Amino-2-oxoethyl)azetidin-1-yl)-3,5-dicyano-4-ethylpyridin-2-yl)thio)-2-phenylacetamide], the “DNMT1 BioChemical (pIC50 category)” value at DNMT1 (setting [3]) was “D (Category D: ≥6.5)”. Moreover, the EC50 in experiment [1] is 1000 to 31600 nM.

As for `CCc1c(C#N)c(SC(C(N)=O)c2ccccc2)nc(N2CCC(N(C)C3CCC3)CC2)c1C#N` (stereo not drawn) [Example 454, 2-((3,5-dicyano-6-(4-(cyclobutyl(methyl)amino)piperidin-1-yl)-4-ethylpyridin-2-yl)thio)-2-phenylacetamide], the “DNMT1 BioChemical (pIC50 category)” value on DNMT1 (setting [3]) is recorded as “D (Category D: ≥6.5)”. Besides, the EC50 in experiment [1] is below 316 nM.

Take `CCc1c(C#N)c(SCc2ccc(C(=O)NCCO)cc2)nc(N(C)C)c1C#N` [Example 292, 4-(((3,5-Dicyano-6-(dimethylamino)-4-ethylpyridin-2-yl)thio)methyl)-N-(2-hydroxyethyl)benzamide]: the IC50 at DNMT1 (setting [2]) was 316 to 1000 nM. Besides, the EC50 in experiment [1] was 1000 to 31600 nM.

`CCc1c(C#N)c(SC(C(N)=O)c2ccccc2)nc(N(C)CC(=O)N2CCNCC2)c1C#N` (stereo not drawn) [Example 622, 2-((3,5-dicyano-4-ethyl-6-(methyl(2-oxo-2-(piperazin-1-yl)ethyl)amino)pyridin-2-yl)thio)-2-phenylacetamide]: the “DNMT1 BioChemical (pIC50 category)” value at DNMT1 (setting [3]) was “D (Category D: ≥6.5)”. Besides, the EC50 in experiment [1] was below 316 nM.

As for `CCc1c(C#N)c(SC(C(N)=O)c2ncccc2OC)nc(N2CCCN(C)CC2)c1C#N` (stereo not drawn) [Example 209, 2-((3,5-Dicyano-4-ethyl-6-(4-methyl-1,4-diazepan-1-yl)pyridin-2-yl)thio)-2-(3-methoxypyridin-2-yl)acetamide], the IC50 at DNMT1 (setting [2]) is 316 to 1000 nM. The EC50 in experiment [1] is 316 to 1000 nM.

With `CCc1c(C#N)c(SC(C(N)=O)c2ccccc2)nc(N2CCC(NCCOC)C(F)C2)c1C#N` (stereo not drawn) [Example 510, 2((3,5-dicyano-4-ethyl-6-(3-fluoro-4-((2-methoxyethyl)amino)piperidin-1-yl)pyridin-2-yl)thio)-2-phenylacetamide], the “DNMT1 BioChemical (pIC50 category)” value at DNMT1 (setting [3]) is “D (Category D: ≥6.5)”. For the same molecule, the EC50 in experiment [1] was below 316 nM.

For the molecule `CCc1c(C#N)c(SC(C(N)=O)c2ccccc2)nc(N(C)CC(=O)N(C)CCO)c1C#N` (stereo not drawn) [Example 606, 2-((6-((2-amino-2-oxo-1-phenylethyl)thio)-3,5-dicyano-4-ethylpyridin-2-yl)(methyl)amino)-N-(2-hydroxyethyl)-N-methylacetamide], the “DNMT1 BioChemical (pIC50 category)” value on DNMT1 (setting [3]) is “D (Category D: ≥6.5)”. Moreover, the EC50 in experiment [1] is below 316 nM.

As to `CN1CCN(c2nc(SC(C(N)=O)c3ccccc3)c(C#N)c(C3CC3)c2C#N)CCC1=O` (stereo not drawn) [Example 109, 2-{[3,5-Dicyano-4-cyclopropyl-6-(4-methyl-5-oxo-1,4-diazepan-1-yl)pyridin-2-yl]sulfanyl}-2-phenylacetamide], the IC50 at DNMT1 (setting [2]) is 316 to 1000 nM; at DNMT1 (breaklight assay and/or SPA assay, repeated experimental runs, read-out: average pIC50 against DNMT1 (converted)), at least 1000 nM. Also, the EC50 in experiment [1] was below 316 nM.
